Results reported in US11021481B2, “Substituted isoindolin-1-ones and 2,3-dihydro-1h-pyrrolo[3,4-c]pyridin-1-ones as HPK1 antagonists” (Nimbus Saturn, Inc., priority 2019, dated 2021).
pIC50: −log10 of the molar value.

target: HPK1 (Homo sapiens (Human), UniProt Q92918); assay: HPK1 biochemical enzyme assay (microfluidic mobility shift assay); settings: 1.5 nM HPK1, ATP 1 mM final, 30 min preincubation, 60 min at RT, Caliper EZ Reader; read-out: HPK1 1000UMATP caliper IC50
Summary of the method: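 Mobility shift readout of HPK1 activity after a 60 min RT reaction with 1 mM ATP, 1 μM substrate and 5 mM MgCl2. Enzyme/substrate mix was first exposed to compounds for 30 min, using ten-point curves topping at 3 μM final.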

HPK1, sequence (Q92918 whole entry): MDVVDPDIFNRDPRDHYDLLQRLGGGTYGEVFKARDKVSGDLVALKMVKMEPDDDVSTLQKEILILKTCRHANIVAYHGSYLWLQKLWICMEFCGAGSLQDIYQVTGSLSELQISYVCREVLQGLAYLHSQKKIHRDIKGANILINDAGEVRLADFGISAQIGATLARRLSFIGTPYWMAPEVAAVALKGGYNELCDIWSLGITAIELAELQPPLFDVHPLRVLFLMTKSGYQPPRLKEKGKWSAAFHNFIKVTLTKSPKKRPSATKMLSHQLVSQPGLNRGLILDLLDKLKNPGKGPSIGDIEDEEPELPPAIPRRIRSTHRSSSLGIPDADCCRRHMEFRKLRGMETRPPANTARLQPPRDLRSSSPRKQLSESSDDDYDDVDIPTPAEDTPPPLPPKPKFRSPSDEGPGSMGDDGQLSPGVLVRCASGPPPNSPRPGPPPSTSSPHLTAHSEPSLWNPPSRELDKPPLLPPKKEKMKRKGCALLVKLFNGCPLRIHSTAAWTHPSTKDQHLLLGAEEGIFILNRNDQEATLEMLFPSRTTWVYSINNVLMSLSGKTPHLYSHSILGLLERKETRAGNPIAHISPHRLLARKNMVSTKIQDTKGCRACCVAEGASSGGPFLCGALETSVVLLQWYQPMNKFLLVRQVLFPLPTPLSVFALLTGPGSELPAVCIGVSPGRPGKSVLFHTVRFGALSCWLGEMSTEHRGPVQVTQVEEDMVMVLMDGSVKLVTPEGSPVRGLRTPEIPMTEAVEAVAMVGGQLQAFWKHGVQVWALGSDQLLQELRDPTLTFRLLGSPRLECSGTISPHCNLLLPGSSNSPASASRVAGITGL

| pIC50 | Structure (SMILES) |
| --- | --- |
| > 7.00 | CN(C)C1CN(c2nc(Nc3ccc(-c4cnc5cc(F)ccn45)c4c3C(=O)NC4)ccc2C2CCOC2)C1 (stereo in doubt) [I-786, (S)-7-((6-(3-(dimctliylami-no)azetidin-1-yl)-5-(tetrahydrofur-an-3-yl)pyridin-2-yl)amino)-4-(7-fluoroimidazo [1,2-a]pyridin-3-yl)isoindolin-1-one] |
| > 7.00 | CN(C)C1CN(c2nc(Nc3ccc(-c4cnc5cc(F)ccn45)c4c3C(=O)NC4)ccc2C2CCOC2)C1 (stereo in doubt) [I-787, (R)-7-((6-(3-(dimethylami-no)azetidin-1-yl)-5-(tetrahydrofuran-3-yl)pyridin-2-yl)amino)-4-(7-fluoroimidazo [1,2-a]pyridin-3-yl)isoindolin-1-one] |
| > 7.00 | CO[C@H]1CCN(Cc2nc(Nc3ccc(-c4cnc5cc(F)ccn45)c4c3C(=O)NC4)ccc2[C@H]2CCOC2)C1 (stereo in doubt) [I-789] |
| > 7.00 | CN(C)Cc1nc(Nc2ccc(-c3cnc4cc(F)ccn34)c3c2C(=O)NC3)cnc1C1CCOC1 (stereo in doubt) [I-799, (S)-7-((6-((dimethylamino)-methyl)-5-(tetrahydrofu-ran-3-yl)pyrazin-2-yl)amino)-4-(7-fluoroimidazo [1,2-a]pyridin-3-yl)isoindolm-1-one] |
| > 7.00 | CN(C)CCc1nc(Nc2cnc(-c3ccnc4c3ccn4C)c3c2C(=O)NC3)ccc1C1CCOC1 (stereo in doubt) [I-807, (R)-7-((6-(2-(dimethylami-no)ethyl)-5-(tetrahydrofuran-3-yl)pyridin-2-yl)amino)-3-(1-methyl-1H-pyrrolo[2,3-b)pyridin-4-yl)-2,3-dihydro-1H-pyrrolo[3,4-c]pyridin-1-one] |
| > 7.00 | CN(C)CCc1nc(Nc2cnc(-c3ccnc4c3ccn4C)c3c2C(=O)NC3)ccc1C1CCOC1 (stereo in doubt) [I-808, (S)-7-((6-(2-(dimothylami-no)ethyl)-5-(tetrahydrofuran-3-yl)pyridin-2-yl)amino)-4-(1-methyl-1H-pyrrolo[2,3-b]pyridin-4-yl)-2,3-dihydro-1H-pyrrolo[3,4-c]pyridin-1-one] |
| 6.00 to 7.00 | O=C1NCc2c(-c3c[nH]c4ccccc34)ncc(Nc3ccc(N4CCNCC4)cn3)c21 [I-1, 4-(1H-indol-3-yl)-7-[(5-piperazin-1-yl-2-pyridyl)amino]-2,3-dihydropyrrolo [3,4-c]pyridin-1-one] |
| 6.00 to 7.00 | CN1CCN(c2ccc(Nc3cnc(-c4c[nH]c5ccccc45)c4c3C(=O)NC4)nc2)CC1 [I-2, 4-(1H-indol-3-yl)-7-[[5-(4-methylpiperazin-1-yl)-2-pyridyl]amino]-2,3-dihydropyrrolo [3,4-c]pyridin-1-one] |
| 6.00 to 7.00 | O=C1NCc2c(-c3c[nH]c4ccccc34)ncc(Nc3ccc(N4CCOCC4)cn3)c21 [I-3, 4-(1H-indo1-3-yl)-7-[(5-morpholino-2-pyridyl)amino]-2,3-dihydropyrrolo [3,4-c] pyridin-1-one] |
| 6.00 to 7.00 | COc1ccc2c(-c3ncc(Nc4ccc(N5CCN(C)CC5)cn4)c4c3CNC4=O)c[nH]c2c1 [I-4, 4-(6-methoxy-1H-indol-3-yl)-7-[[5-(4-methylpiperazin-1-yl)-2-pyridyl]amino]-2,3-dihydropyrrolo [3,4-c]pyridin-1-one] |
| 6.00 to 7.00 | Cc1cccc2c(-c3ncc(Nc4ccc(N5CCN(C)CC5)cn4)c4c3CNC4=O)c[nH]c12 [I-5, 4-(7-methyl-1H-indol-3-yl)-7-[[5-(4-methylpiperazin-1-yl)-2-pyridyl]amino]-2,3-dihydropyrrolo [3,4-c]pyridin-1-one] |
| > 7.00 | CN1CCN(c2ccc(Nc3cnc(-c4c[nH]c5ncccc45)c4c3C(=O)NC4)nc2)CC1 [I-6, 7-((5-(4-Methylpiperazin-1-yl)pyridin-2-yl)amino)-4-(1H-pyrrolo[2,3-b]pyridin-3-yl)-2,3-dihydro-1H-pyrrolo[3,4-c]pyridin-1-one] |
| 6.00 to 7.00 | COc1cccc2c(-c3ncc(Nc4ccc(N5CCN(C)CC5)cn4)c4c3CNC4=O)c[nH]c12 [I-7, 4-(7-methoxy-1H-indol-3-yl-)-7-[[5-(4-methylpiperazin-1-yl)-2-pyridyl]amino]-2,3-dihydropyrrolo [3,4-c]pyridin-1-one] |
| 6.00 to 7.00 | Cc1ccc2c(-c3ncc(Nc4ccc(N5CCN(C)CC5)cn4)c4c3CNC4=O)c[nH]c2c1 [I-8, 4-(6-methyl-1H-indol-3-yl)-7-[[5-(4-methylpiperazin-1-yl)-2-pyridyl]amino]-2,3-dihydropyrrolo [3,4-c]pyridin-1-one] |
| 6.00 to 7.00 | COc1ccc2[nH]cc(-c3ncc(Nc4ccc(N5CCN(C)CC5)cn4)c4c3CNC4=O)c2c1 [I-9, 4-(5-methoxy-1H-indol-3-yl)-7-[[5-(4-methylpiperazin-1-yl)-2-pyridyl]amino]-2,3-dihydropyrrolo [3,4-c]pyridin-1-one] |
| < 6.00 | O=C1NCc2c(-c3c[nH]c4ccccc34)ncc(Nc3ccc(N4CC5CCC(C4)O5)cn3)c21 [I-10, 4-(1H-indol-3-yl)-7-[[5-(8-oxa-3-azabicyclo [3.2.1]octan-3-yl)-2-pyridyl]amino]-2,3-dihydropyrrolo [3,4-c]pyridin-1-one] |
| 6.00 to 7.00 | Cc1[nH]c2ccccc2c1-c1ncc(Nc2ccc(N3CCN(C)CC3)cn2)c2c1CNC2=O [I-11, 4-(2-methyl-1H-indol-3-yl)-7-[[5-(4-methylpiperazin-1-yl)-2-pyridyl]amino]-2,3-dihydropyrrolo [3,4-c]pyridin-1-one] |
| < 6.00 | O=C1NCc2c(-c3c[nH]c4ccccc34)ncc(Nc3ccc(N4CCC(F)(F)CC4)cn3)c21 [I-12, 7-[[5-(4,4-difluoro-1-piperidyl)-2-pyridyl]amino]-4-(1H-indol-3-yl)-2,3-dihydropyrrolo [3,4-c]pyridin-1-one] |
| 6.00 to 7.00 | CN1CCN(c2ccc(Nc3cnc(-c4c[nH]c5ccncc45)c4c3C(=O)NC4)nc2)CC1 [I-13, 7-[[5-(4-methylpiperazin-1-yl)-2-pyridyl]amino]-4-(1H-pyrrolo[3,2-c]pyridin-3-yl)-2,3-dihydropyrrolo [3,4-c]pyridin-1-one] |
| < 6.00 | CN1CCN(c2ccc(Nc3cnc(-c4cn(C)c5ncccc45)c4c3C(=O)NC4)nc2)CC1 [I-14, 7-[[5-(4-methylpiperazin-1-yl)-2-pyridyl]amino]-4-(1-methylpyrrolo [2,3-b]pyridin-3-yl)-2,3-dihydropyrrolo [3,4-c]pyridin-1-one] |
| 6.00 to 7.00 | Cc1[nH]c2ncccc2c1-c1ncc(Nc2ccc(N3CCN(C)CC3)cn2)c2c1CNC2=O [I-15] |
| < 6.00 | Cc1ccc2c(-c3ncc(Nc4ccc(N5CCN(C)CC5)cn4)c4c3CNC4=O)c(C)[nH]c2n1 [I-17, 4-(2,6-dimethyl-1H-pyrrolo[2,3-b]pyridin-3-yl)-7-[[5-(4-methylpiperazin-1-yl)-2-pyridyl]amino]-2,3-dihydropyrrolo [3,4-c]pyridin-1-one] |
| > 7.00 | CN1CCN(c2ccc(Nc3cnc(-c4ccnc5c4ccn5C)c4c3C(=O)NC4)nc2)CC1 [I-18, 7-[[5-(4-methylpiperazin-1-yl)-2-pyridyl]amino]-4-(1-methylpyrrolo [2,3-b]pyridin-4-yl)-2,3-dihydropyrrolo [3,4-c]pyridin-1-one] |
| > 7.00 | Cc1c[nH]c2nccc(-c3ncc(Nc4ccc(N5CCN(C)CC5)cn4)c4c3CNC4=O)c12 [I-19, 7-[[5-(4-methylpiperazin-1-yl)-2-pyridyl]amino]-4-(3-methyl-1H-pyrrolo[2,3-b]pyridin-4-yl)-2,3-dihydropyrrolo [3,4-c]pyridin-1-one] |
